Legend:
[1] = as described in Example 41 of U.S. patent application Ser. No. 15/254,342; cited from earlier work
[2] = 4-day repeat dose dog liver biopsy study; type: in vivo; conditions: Compound 1 dosed orally at 1 mg/kg
Method: (§1) This was believed to be attributed to the unique prodrug moiety in Compound 1, which is different from that in sofosbuvir. See paragraphs [0017]. [0018] and [0019] of U.S. patent application Ser. No. 15/254,342. In 4-day repeat dose dog liver biopsy study, Compound 1 dosed orally at 1 mg/kg delivered the similar liver triphosphate levels as sofosbuvir dosed orally at 5 mg/kg. Further modeling provided that 75 mg Compound 1 once daily dosing in human patients would match the liver triphosphate Cmax achieved by 400 mg sofosbuvir once daily dosing, that 80 mg Compound 1 once daily dosing in human patients would match the liver triphosphate AUC0-24 achieved by 400 mg sofosbuvir once daily dosing, and that 16 mg Compound 1 once daily dosing in human patients would maintain Cmin above GT1b polymerase EC50. The model that was used to translate dog study results to human liver pharmacokinetics was validated by sofosbuvir data.

[3] = modeling translating dog study results to human liver pharmacokinetics; conditions: modeled from dog study, once daily dosing
Method: as §1

SMILES: CCOC(=O)C(C)(C)N[P@](=O)(OC[C@H]1O[C@@H](n2ccc(=O)[nH]c2=O)[C@@](F)(Br)[C@@H]1O)Oc1ccccc1 [Compound 1]
- active triphosphate profiles as compared to sofosbuvir [1]: significantly improved
- liver triphosphate levels compared with sofosbuvir dosed orally at 5 mg/kg [2]: similar
- once daily dose in human patients that would maintain Cmin above GT1b polymerase EC50 [3]: 16 mg
- once daily dose in human patients that would match the liver triphosphate AUC0-24 achieved by 400 mg sofosbuvir once daily [3]: 80 mg
- once daily dose in human patients that would match the liver triphosphate Cmax achieved by 400 mg sofosbuvir once daily [3]: 75 mg
